Test results from patent publication US12455279B2, “Personalized immunotherapy for rejuvenating activating and strengthening exhausted and dysfunctional T cells, reducing PD-1, and improving immune function” (priority 2018, dated 2025).
Entries after “also recorded” stand apart in the source; their conditions may differ.

Legend:
[1] = test system: PD-1 expressing smaller non-proliferating CD3+ normal human T cells; experiment: PD-1 expression on smaller non-proliferating T cells (FSC/SSC gating), 1 Hr treatment; type: cell-based; conditions: 10−8M; for % reduction in % of smaller T cells expressing PD-1: vs untreated
Protocol: (§1) Peripheral blood lymphocytes (PBLs) were separated from normal human leukocytes of healthy donors by Ficol separation and CD3 positive T cells were separated by anti-CD3 antibody-coupled magnetic beads. The CD3+ T cells were cultured in RPMI 1640 medium supplemented with 10% heat inactivated fetal calf serum (FCS), 1% L-Glutamine, 1% sodium pyruvate, 1% non-essential amino acids, and 1% antibiotics. The cells were usually maintained for, for on average 24 hours after their separation before various molecules were added and their effects on the T cells were measured. […] It was therefore tested if neurotransmitters, neuropeptides, and/or modulators of voltage-gated ion channels can reduce PD-1 on the cell surface of T cells. Such a reduction would allow the T cells to escape the tumor-induced T cell suppression, and the activated T cells could then attach the cancer cells. As such, the expression of PD-1 on the surface of these treated and untreated T cells was monitored. […] Shorter in vitro incubation times are frequently preferable when cells are going to subsequently be returned to a subject, as they end to decrease the risk of an adverse reaction.
(§2) CD3 positive T cells of patients are a heterogenous mix of different types of T cells. […] Using this FCS and SSC analysis, T cells can be distinguished and separated by size into large proliferating T cells and smaller non-proliferating T cells.

[2] = test system: PD-1 expressing large proliferating CD3+ normal human T cells; experiment: PD-1 expression on large proliferating T cells (FSC/SSC gating), 1 Hr treatment; type: cell-based; conditions: 10^−8M; for % reduction in % of large T cells expressing PD-1: vs untreated
Protocol: as §1, §2

[3] = test system: CD3+ T cells of liver cancer patients; experiment: Proliferation / big proliferating T cells / CD25 of CD3+ T cells of liver cancer patients; type: cell-based, human; parameters: % big/activated/proliferating T cells: concentration or dose not given beside the values; conditions: for % big/activated/proliferating T cells / Fold increase (big/activated/proliferating T cells): T cells of liver cancer patient one; for % big/activated/proliferating T cells: 60 hours culture; for Fold increase (big/activated/proliferating T cells): vs untreated; for number of T cells present in culture (FIG. 1): 60 hours after administration
Protocol: Blood was drawn from two patients suffering from liver cancer, patient one and patient two who both suffer from hepatocellular carcinoma. 15 mLs of blood yielded roughly 2.5×10^7 peripheral blood leucocytes, from which approximately […] positive T cells were isolated. The cells were cultured as described above, and the effects of various molecules and their combinations on those T cells were examined.
Cell proliferation was monitored in culture for 60 hours after administration of the molecule/s (FIG. 1).

[4] = test system: PD-1 expressing CD3+ normal human T cells; experiment: PD-1 surface expression on CD3+ T cells of healthy donors after treatment (1, 18, 24 Hr); type: cell-based; conditions: for % reduction in % of T cells expressing PD-1: vs untreated
Protocol: as §1

| SMILES | % of smaller T cells expressing PD-1 [1] [%] | % reduction in % of smaller T cells expressing PD-1 [1] [%] | % of large T cells expressing PD-1 [2] [%] | % reduction in % of large T cells expressing PD-1 [2] [%] | % big/activated/proliferating T cells [3] [%] | Fold increase (big/activated/proliferating T cells) [3] | number of T cells present in culture (FIG. 1) ([3]; patient one) | increase in the number of big, proliferating CD3 positive cells (ranking in words) ([3]; patient one, flow cytometer) | % of T cells expressing PD-1 ([4]; 1 Hr treatment, 10^−8M) [%] | % reduction in % of T cells expressing PD-1 ([4]; 1 Hr treatment, 10^−8M) [%] | % of T cells expressing PD-1 ([4]; 18 Hr treatment, 10^−7M) [%] | % reduction in % of T cells expressing PD-1 ([4]; 18 Hr treatment, 10^−7M) [%] | % of T cells expressing PD-1 ([4]; 24 Hr treatment, 10^−7M) [%] | % reduction in % of T cells expressing PD-1 ([4]; 24 Hr treatment, 10^−7M) [%] | % of T cells expressing PD-1 ([4]; 24 Hr treatment, 10^−8M) [%] | % reduction in % of T cells expressing PD-1 ([4]; 24 Hr treatment, 10^−8M) [%] | effect on PD-1 expressing T cells ([4]; incubated for 24 hours) |
| --- | --- | --- | --- | --- | --- | --- | --- | --- | --- | --- | --- | --- | --- | --- | --- | --- | --- |
| N[C@@H](CCC(=O)O)C(=O)O [Glutamate] | 32.8 | 25.3 | 13.0 | 39.5 | 24.80 | 5.4-fold | increased the number of T cells present in culture; also recorded: most effective | most effective | 24.65 | 33 | 23.70 | 31.7 | 15.8 | 22.64 | 16.3 | 20.2 |  |
| NCCc1ccc(O)c(O)c1 [Dopamine] | 40.4 | 8.0 | 19.1 | 11.2 | 14 | 3-fold | increased the number of T cells present in culture; also recorded: most effective |  | 30.3 | 17 | 24.90 | 28.40 | 10 | 51.05 | 22.4 | −9.64 | did not have a positive effect |
